Laboratory results: patent publication US6908919B2, “Substituted polycyclic aryl and heteroaryl pyrazinones useful for selective inhibition of the coagulation cascade” (Pharmacia Corporation, priority 1999, dated 2005)
Like-named read-outs stand apart in the source and are kept apart here.

What was measured:
[1] = biological target: Human factor Xa (Homo sapiens, UniProt P00742); assay: Xa Assay; type: biochemical; design: purchased Enzyme Research Laboratories, South Bend Ind; settings: for inhibition at 100 µM: at 100 μM inhibitor
Chain of Human factor Xa (P00742 41-179 limits assumed): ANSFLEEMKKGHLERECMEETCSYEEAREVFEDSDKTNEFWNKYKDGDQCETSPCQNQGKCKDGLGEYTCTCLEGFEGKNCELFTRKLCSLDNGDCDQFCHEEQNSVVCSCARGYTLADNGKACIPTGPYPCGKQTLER
Chain of Human factor Xa (P00742 235-488 limits assumed): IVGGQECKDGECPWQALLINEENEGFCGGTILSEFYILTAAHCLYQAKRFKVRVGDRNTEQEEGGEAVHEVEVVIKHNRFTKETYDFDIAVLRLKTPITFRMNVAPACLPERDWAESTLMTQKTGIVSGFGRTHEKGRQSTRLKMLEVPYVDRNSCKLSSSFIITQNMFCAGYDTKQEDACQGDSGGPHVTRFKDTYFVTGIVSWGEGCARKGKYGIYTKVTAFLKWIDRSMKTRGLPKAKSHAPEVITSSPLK

[2] = biological target: Human thrombin (Homo sapiens, UniProt P00734); assay: biochemical; settings: for inhibition at 100 µM: read-out: % Inhibition Thrombin II at 100 μM
[3] = biological target: T1, recombinant soluble tissue factor and recombinant human factor VIIa (TF-VIIa) (Homo sapiens, UniProt P08709); assay: TF-VIIa Assay; type: biochemical; settings: for IC50: read-out: IC50 TF-VIIa; for inhibition at 30 µM: 1 h
T1 construct: conversion of coagulation factor VII to VIIa by Xa; purchased American Diagnostica, Greenwich Conn; host or cells: VIIa purchased; soluble TF made in house in E. coli
T1 sequence (P08709 61-212 limits assumed): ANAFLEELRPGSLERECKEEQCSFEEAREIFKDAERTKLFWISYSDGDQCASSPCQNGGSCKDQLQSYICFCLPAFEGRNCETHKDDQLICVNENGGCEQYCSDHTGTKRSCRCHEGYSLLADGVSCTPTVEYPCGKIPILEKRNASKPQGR
T1 sequence (P08709 213-466 limits assumed): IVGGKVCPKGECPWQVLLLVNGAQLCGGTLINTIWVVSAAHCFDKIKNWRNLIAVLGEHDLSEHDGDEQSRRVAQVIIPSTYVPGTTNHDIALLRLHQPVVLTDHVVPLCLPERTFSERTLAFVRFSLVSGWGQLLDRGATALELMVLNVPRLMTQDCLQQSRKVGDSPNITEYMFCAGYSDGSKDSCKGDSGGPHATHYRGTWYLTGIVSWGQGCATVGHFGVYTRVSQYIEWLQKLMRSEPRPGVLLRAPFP
T1 sequence (P13726 33-251 partner limits assumed): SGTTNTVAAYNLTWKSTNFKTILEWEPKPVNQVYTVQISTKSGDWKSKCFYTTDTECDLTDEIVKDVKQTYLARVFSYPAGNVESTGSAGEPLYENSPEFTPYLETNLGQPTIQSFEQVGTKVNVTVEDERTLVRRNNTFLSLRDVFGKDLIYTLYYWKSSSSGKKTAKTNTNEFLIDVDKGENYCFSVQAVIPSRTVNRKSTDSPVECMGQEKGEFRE

IC50 [3] [nM]	% Inhibition Factor Xa (100 µM) ([1]; inhibitor at 100 µM) [%]	% Inhibition TF-VIIa (100 µM) ([3]; inhibitor at 100 µM) [%]	Compound	also measured
360			CC(C)Nc1nc(Cl)c(-c2cccc(N)c2)n(CC(=O)NCC2CCC(C(=N)N)C=N2)c1=O (stereo not drawn) [Example 150]	% Inhibition Factor Xa (30 µM) ([1]; at 30 µM inhibitor): 4%; IC50 [2]: 25 µM
7030			N/N=C(/N)c1ccc(CNC(=O)Cn2c(-c3cccc(N)c3)c(Cl)nc(NC3CCC3)c2=O)cc1 [Example 148]	inhibition at 100 µM [1]: 8%; inhibition at 100 µM [2]: 4%
11			CC(C)Nc1nc(Cl)c(-c2cc(N)cc(C(=O)NCc3cccc(F)c3)c2)n(CC(=O)NCc2ccc(C(=N)N)cc2)c1=O [Example 128-12]	inhibition at 100 µM [1]: 33%; inhibition at 100 µM [2]: 47%
10.7			CC(C)Nc1nc(Cl)c(-c2cc(N)cc(C(=O)NC(C)(C)c3ccccc3)c2)n(CC(=O)NCc2ccc(C(=N)N)cc2)c1=O [Example 128-4]	inhibition at 100 µM [1]: 42%; IC50 [2]: 24 µM
120			CSc1ccc(N)cc1-c1c(Cl)nc(NC(C)C)c(=O)n1CC(=O)NCc1ccc(C(=N)N)cc1 [Example 111]	IC50 [1]: > 30 µM; IC50 [2]: > 30 µM
			N=C(N)c1ccc(NC(=O)Cn2c(-c3cccc(N)c3)c(Cl)nc(NC3CCC3)c2=O)cc1 [Example 141]	inhibition at 100 µM [1]: 13%; inhibition at 100 µM [2]: 11%; inhibition at 30 µM ([3]; at 30 µM inhibitor): 2%
			Nc1cccc(-c2c(Cl)nc(NC3CCC3)c(=O)n2CC(=O)NCc2ccc(-c3n[nH]c(=O)[nH]3)cc2)c1 [Example 153]	% Inhibition Factor Xa (30 µM) ([1]; at 30 µM inhibitor): 8%; IC50 [2]: > 30 µM; inhibition at 30 µM ([3]; at 30 µM inhibitor): 12%
270			COC(=O)c1cccc(Sc2ccc(N)cc2-c2c(Cl)nc(NC(C)C)c(=O)n2CC(=O)NCc2ccc(C(=N)N)cc2)c1 [Example 112]	IC50 [1]: 35 µM; IC50 [2]: 13 µM
13300			N=C(N)c1ccc(COCCn2c(-c3cccc(N)c3)c(Cl)nc(NC3CCC3)c2=O)cc1 [Example 140]	inhibition at 100 µM [1]: 24%; IC50 [2]: 47.4 µM
200			N=C(N)c1ccc(CCC(=O)Cn2c(-c3cccc(N)c3)c(Cl)nc(NC3CCC3)c2=O)cc1 [Example 142]	IC50 [2]: 4.6 µM
18.5			CC(C)Nc1nc(Cl)c(-c2cc(N)cc(C(=O)NCc3cccnc3)c2)n(CC(=O)NCc2ccc(C(=N)N)cc2)c1=O [Example 128-18]	inhibition at 100 µM [2]: 21%
8.2			CC(C)Nc1nc(Cl)c(-c2cc(N)cc(C(=O)NC(C)c3ccccc3)c2)n(CC(=O)NCc2ccc(C(=N)N)cc2)c1=O (stereo not drawn) [Example 128-3]	inhibition at 100 µM [1]: 40%
			Nc1cccc(-c2c(Cl)nc(NC3CCC3)c(=O)n2CC(=O)NCc2ccccc2)c1 [Example 99]	% Inhibition Factor Xa (30 µM) ([1]; at 30 µM inhibitor): 8% @ 30; % Inhibition TF-VIIa (30 µM) ([3]; at 30 µM inhibitor): 6% @ 30
25.6			CC(C)Nc1nc(Cl)c(-c2cc(N)cc(C(=O)N(C)Cc3ccccc3)c2)n(CC(=O)NCc2ccc(C(=N)N)cc2)c1=O [Example 128-2]	inhibition at 100 µM [1]: 41%
	0	0	O=C(Cn1c(-c2ccccc2)c(Cl)nc(NCCN2CCOCC2)c1=O)NCCc1ccncc1 [Example E-0015]	
	1	0	Cc1c(Cl)nc(NCc2ccccc2)c(=O)n1CC(=O)NCCc1ccncc1 [Example E-0001]	
6190			N=C(N)c1ccc(CNC(=O)Cn2c(-c3ccc(C(=N)N)cc3)c(Cl)nc(NC3CCC3)c2=O)cc1 [Example 113]	IC50 [1]: 14 µM
	0	2	Cc1c(Cl)nc(NCCc2ccncc2)c(=O)n1CC(=O)NCCc1ccncc1 [Example E-0006]	
	0	0	O=C(Cn1c(-c2ccc(Cl)cc2)c(Cl)nc(NCCc2cccc(Cl)c2)c1=O)NCCc1ccncc1 [Example E-0019]	
	0	0	O=C(Cn1c(CCc2ccccc2)c(Cl)nc(NCCc2cccc(Cl)c2)c1=O)NCCc1ccncc1 [Example E-0067]	
7.4			CC(C)CNC(=O)c1cc(N)cc(-c2c(Cl)nc(NC(C)C)c(=O)n2CC(=O)NCc2ccc(C(=N)N)cc2)c1 [Example 128-14]	inhibition at 100 µM [1]: 24%
	0	0	O=C(Cn1c(-c2ccc3c(c2)OCO3)c(Cl)nc(NCCN2CCOCC2)c1=O)NCCc1ccncc1 [Example E-0047]	
7			CC(C)Nc1nc(Cl)c(-c2cc(N)cc(C(=O)NCc3ccccc3)c2)n(CC(=O)NCc2ccc(C(=N)N)cc2)c1=O [Example 128-9]	inhibition at 100 µM [1]: 36%
	0	0	O=C(Cn1c(-c2ccc(Cl)cc2)c(Cl)nc(NCCc2ccncc2)c1=O)NCCc1ccncc1 [Example E-0022]	
			N=C(N)c1ccc(CNC(=O)C(Cc2ccccc2)n2c(-c3ccccc3)c(Cl)nc(NCCc3ccccc3)c2=O)cc1 (stereo not drawn) [Example 1517-14]	% Inhibition Factor Xa (30 µM) ([1]; at 30 µM): 0%; % Inhibition TF-VIIa (30 µM) ([3]; at 30 µM): 30%
	0	0	O=C(Cn1c(CCc2ccccc2)c(Cl)nc(NCCc2ccccc2)c1=O)NCCc1ccncc1 [Example E-0066]	

IC50 [3] [nM]	% Inhibition Factor Xa (100 µM) ([1]; inhibitor at 100 µM) [%]	% Inhibition TF-VIIa (100 µM) ([3]; inhibitor at 100 µM) [%]	Compound	also measured
	3	0	COc1ccc(-c2c(Cl)nc(NCc3ccccc3)c(=O)n2CC(=O)NCCc2ccncc2)cc1 [Example E-0097]	
	0	0	O=C(Cn1c(CCc2ccccc2)c(Cl)nc(NCc2ccncc2)c1=O)NCCc1ccncc1 [Example E-0072]	
			Nc1cccc(-c2c(Cl)nc(NC3CCC3)c(=O)n2CC(=O)NCc2ccc3[nH]cnc3c2)c1 [Example 146]	% Inhibition Factor Xa (30 µM) ([1]; at 30 µM inhibitor): 5%; IC50 [2]: > 30 µM
	0	0	O=C(Cn1c(-c2ccccc2)c(Cl)nc(NCc2ccncc2)c1=O)NCCc1ccncc1 [Example E-0016]	
	3	0	O=C(Cn1c(-c2cccc(Cl)c2)c(Cl)nc(NCCc2ccccc2)c1=O)NCCc1ccncc1 [Example E-0088]	
			Nc1cccc(-c2c(Cl)nc(NC3CCC3)c(=O)n2CC(=O)NCCc2ccccc2)c1 [Example 89]	% Inhibition Factor Xa (30 µM) ([1]; at 30 µM inhibitor): 5% @ 30; % Inhibition TF-VIIa (30 µM) ([3]; at 30 µM inhibitor): 5% @ 30
			N=C(N)c1ccc(CNC(=O)Cn2c(-c3ccc(-c4ccccc4)cc3)c(Cl)nc(NCCc3ccccc3)c2=O)cc1 [1471-71]	% Inhibition Factor Xa (30 µM) ([1]; at 30 µM inhibitor): 0%; % Inhibition TF-VIIa (30 µM) ([3]; at 30 µM inhibitor): 6%
			N=C(N)c1ccc(CNC(=O)Cn2c(-c3ccccc3)c(Cl)nc(NCc3c(F)cccc3C(F)(F)F)c2=O)cc1 [1512-44]	% Inhibition Factor Xa (30 µM) ([1]; at 30 µM inhibitor): 6%; % Inhibition TF-VIIa (30 µM) ([3]; at 30 µM inhibitor): 43%
			Cc1cc(Cl)cc(Cl)c1CNc1nc(Cl)c(-c2ccccc2)n(CC(=O)NCc2ccc(C(=N)N)cc2)c1=O [1512-45]	% Inhibition Factor Xa (30 µM) ([1]; at 30 µM inhibitor): 11%; % Inhibition TF-VIIa (30 µM) ([3]; at 30 µM inhibitor): 27%
	0	0	O=C(Cn1c(-c2ccc(Cl)cc2)c(Cl)nc(NCc2ccncc2)c1=O)NCCc1ccncc1 [Example E-0024]	
	0	0	O=C(Cn1c(Cc2ccccc2)c(Cl)nc(NCc2ccncc2)c1=O)NCCc1ccncc1 [Example E-0064]	
10700			N=C(N)c1ccc(C(=O)NCCn2c(-c3cccc(N)c3)c(Cl)nc(NC3CCC3)c2=O)cc1 [Example 136]	inhibition at 100 µM [1]: 15%
	0	0	O=C(Cn1c(-c2ccc(Cl)cc2)c(Cl)nc(NCCN2CCOCC2)c1=O)NCCc1ccncc1 [Example E-0023]	
	1	0	O=C(Cn1c(-c2ccccc2)c(Cl)nc(NCc2ccccc2)c1=O)NCCc1ccncc1 [Example E-0009]	
	0	0	O=C(Cn1c(-c2ccccc2)c(Cl)nc(NCCc2ccccc2)c1=O)NCCc1ccncc1 [Example E-0010]	
43200			N=C(N)c1ccc(C(O)CCCn2c(-c3cccc(N)c3)c(Cl)nc(NC3CCC3)c2=O)cc1 (stereo not drawn) [Example 143]	inhibition at 100 µM [1]: 30%
	1	0	O=C(Cn1c(-c2ccc(Cl)cc2)c(Cl)nc(NCCc2cccnc2)c1=O)NCCc1ccncc1 [Example E-0021]	
			N=C(N)c1ccc(CNC(=O)Cn2c(-c3ccc(-c4ccccc4)cc3)c(Cl)nc(NCCc3ccc(Cl)cc3)c2=O)cc1 [Example 22]	% Inhibition Factor Xa (30 µM) [1]: 13% @ 30; % Inhibition TF-VIIa (30 µM) [3]: 0% @ 30
			O=C(Cn1c(-c2ccc(-c3ccccc3)cc2)c(Cl)nc(NCCc2cccnc2)c1=O)NCCc1ccncc1 [Example E-0053]	% Inhibition Factor Xa (100 µM) [1]: 0%; % Inhibition TF-VIIa (100 µM) [3]: 0%
	0	0	Cc1c(Cl)nc(NCCc2ccccc2)c(=O)n1CC(=O)NCCc1ccncc1 [Example E-0002]	
242			CC(C)Nc1nc(Cl)c(-c2cc(N)cc(C(=O)NCc3ccc(C(C)(C)C)cc3)c2)n(CC(=O)NCc2ccc(C(=N)N)cc2)c1=O [Example 128-7]	inhibition at 100 µM [1]: 40%
			COc1ccc(-c2c(Cl)nc(NCCN3CCOCC3)c(=O)n2CC(=O)NCc2ccc(C(=N)N)cc2)cc1 [1471-36]	% Inhibition Factor Xa (30 µM) ([1]; at 30 µM inhibitor): 6%; % Inhibition TF-VIIa (30 µM) ([3]; at 30 µM inhibitor): 11%
	4	4	O=C(Cn1c(-c2cccc(Cl)c2)c(Cl)nc(NCCc2ccc(Cl)cc2)c1=O)NCCc1ccncc1 [Example E-0082]	
	5	3	COc1ccc(-c2c(Cl)nc(NCCc3cccc(Cl)c3)c(=O)n2CC(=O)NCCc2cccnc2)cc1 [Example E-0104]	
	4	1	O=C(Cn1c(-c2cccc(Cl)c2)c(Cl)nc(NCCc2cccc(Cl)c2)c1=O)NCCc1cccnc1 [Example E-0080]	
